Literature values, collected in patent US20230003743A1, “METHODS AND COMPOSITIONS FOR TREATING OR PREVENTING AN ALLERGY OR ANAPHYLAXIS” (THE CHILDREN'S MEDICAL CENTER CORPORATION, priority 2020, published 2023).

System: humanized mouse model of FA
Conditions: SCID mice engrafted with human CD34+ hematopoietic stem cells, peanut-sensitized, enterally challenged with PN

Omalizumab
anaphylactic response (hypothermia, increases in plasma tryptase levels) upon enteral peanut challenge: ablates this anaphylactic response
